Results published in patent US20230181463A1, “OLEOGEL AND OLEOPASTE COMPOSITIONS AND USES THEREOF” (Massachusetts Institute of Technology, priority 2020, published 2023).

What was measured:
[1] = Drug release from AZT oleogels in lipolysis medium (simulated intestinal fluid); type: in vitro ADME; conditions: in vitro release over 90 minutes, trapezoidal rule, triplicates
Experimental: Extensive in vitro release studies were conducted to understand the impact of oil, solubilizer and gelling agent on the release of AZT in simulated intestinal fluid (SIF).
Preparation of lipolysis buffer: To prepare lipolysis buffer, tris-maleate (0.474 g), calcium chloride dihydrate (0.275 g), sodium chloride (8.766 g) were weighed and distilled water was added to bring the volume to 1 L. The pH of the buffer was adjusted to pH 6.5 using 5N sodium hydroxide.
Preparation of lipolysis media: L—a phosphotidylcholine (0.576 g/l) and sodium taurodeoxycholate hydrate (1.619 g/l) were added to the lipolysis buffer. Next, the solution was stirred overnight to dissolve all ingredients.
Preparation of pancreatin solution: Three grams of pancreatin was added to 15 ml of lipolysis buffer and stirred on a magnetic stir plate for 10 minutes. The mixture was centrifuged at 28000g, at 5° C. for 10 minutes. The supernant was collected and the pH of the supernant was adjusted to pH 6.5 using 5N sodium hydroxide solution.
Preparation of negative control: To avoid the technical difficulty in material weighing, 40 mg of AZT powder was dispersed into 10 ml of methanol. It was sonicated for 1 minute to get a clear solution. One milliliter was taken into 3 separate Falcon tube and remained still to evaporate the solvent. […]

[2] = In silico pharmacokinetic modelling of AZT oleogels; conditions: first order fit to in vitro release data
Experimental: In vivo pharmacokinetics of the various formulations were calculated using the data obtained from in vitro release studies. To achieve this, pharmacokinetic modeling studies were conducted in two steps. In the first step, first order equations to in vitro release data were used to estimate rate constant for drug release (krel) and the extent of drug release (Agel, t=0). The rate constant of drug release was considered a measure of the speed of drug release. The extent of drug release or Agel, t=0 was a measure of the total amount of drug that could be released from the formulation at 90 min, which likely depended on the partition coefficient for AZT between the oily formulation and aqueous release medium. […] In the second step, one-compartment oral drug administration model was constructed. Using krel and Agel, t=0 as input, pharmacokinetic parameters such as maximum concentration (Cmax), time to maximum concentration (Tmax) and serum drug exposure or area under the curve (AUCfit) were determined. […]

- Average AUC [1]: 127.23 µg·h/mL
- Average Agel, t=0 ([2]; 4.00 mg AZT put in): 3.98 mg
SMILES: CC[C@H]1OC(=O)[C@H](C)[C@@H](O[C@H]2C[C@@](C)(OC)[C@@H](O)[C@H](C)O2)[C@H](C)[C@@H](O[C@@H]2O[C@H](C)C[C@H](N(C)C)[C@H]2O)[C@](C)(O)C[C@@H](C)CN(C)[C@H](C)[C@@H](O)[C@]1(C)O [Control, azithromycin]
- average krel [2]: 5.28 h⁻¹
